The values below come from article PMC10945480 (Journal of Medicinal Chemistry, 2024).

Where two headings read alike, the source gives them in different places.

The subject of data set [1] is washed human platelets. Nature of the data set: U46619-induced platelet aggregation. It counts as cell-based. As to conditions: for IC50: Platelet, washed human platelets, U46619 (1 μM). As to the method:
(§1) The antiplatelet effects of the JUG derivatives were evaluated by measuring human platelet aggregation, which can be regulated by cell surface PDI. Platelet aggregation was induced with platelet activators U46619 (a mimetic of thromboxane A2) and collagen (binding to GPVI).
(§2) Washed human platelets were prepared from acid citrate dextrose-anticoagulated blood of healthy human volunteers as described previously.[73] The study was approved by the Institutional Review Board of Kaohsiung Medical University, and informed consent was obtained from every volunteer. Platelet aggregation was measured by using a turbidimetric aggregometer (Chrono-Log Co., USA) under stirring conditions (1200 rpm) at 37 °C. The extent of platelet aggregation was measured as the maximal increase of light transmission after the addition of the stimulators U46619 and collagen.[73] In the TCIPA assay, platelet aggregation was induced by A549 (1 × 10^4 cells/mL), MDA-MB-231 (1 × 10^2 cells/mL), or RPMI8226 (1 × 10^5 cells/mL) cancer cells in the presence of 0.375% plasma.[74]

The test system of data set [2] is washed human platelets. Description: Collagen-induced platelet aggregation. Type of data set: cell-based. As to conditions: for IC50: Platelet, washed human platelets, collagen (5 μg/mL). As to the method: as §1, §2
Data set [3] can be described thus: Parallel artificial membrane permeability assay (PAMPA). As to conditions: 50 μM, 25 ℃, 3 h, verapamil = 100%, ranitidine = 0%. The procedure: 1. Parallel artificial membrane permeability assay (PAMPA). […]
evolution instruments from pION Inc. In the PAMPA assay, a set of sandwich plates consists of a 96-well microtiter donor plate at the bottom and a 96-well filter acceptor plate on the top from […]
The stock solutions of samples were prepared at 10 mM concentrations in DMSO and stored at 0 ℃ before use. Before being added to a 96-well filter plate, the stock solution was diluted first with buffer to achieve a final sample concentration of 50 μM and to reduce the DMSO concentration below 1% (v/v). Each well of the 96-well donor plate was filled with a 200 μL diluted sample solution (50 μM), and the 96-well filter acceptor plate was then wetted with a 5 μL 2% w/v dioleyoylphosphatidylcholine (DOPC) in n-dodecane and subsequently placed on the donor wells.
Immediately, the acceptor wells were filled with 200 μL of buffer solution and the PAMPA plate sandwich was sealed and incubated at 25 ℃ for 3 h. After reaching the permeation time, the PAMPA plate sandwich was separated and transferred to 96-well UV plates respectively. The amounts of drugs in both the donor and acceptor compartments were measured by comparing the experimental spectra with the UV spectrum (220∼400 nm) obtained from reference standards.
On the technique in general: In PAMPA a lipid-coated filter parts donor from acceptor wells.

Data set [4] deals with glioma U87. Nature of the data set: Cell viability, resazurin assay, U87. To be noted: Homo sapiens, 24 h, read-out: U87 IC50. In general terms: Alamar Blue is a resazurin reagent that responds to reducing activity.
Procedure: (§3) Cells were maintained in a humidified incubator at 37 °C in 5% CO2, and cell viability was determined with the resazurin assay (Cayman Chemical, USA) after the incubation with compounds for indicated concentrations and times or DMSO as control.[72]
The subject of data set [5] is lung cancer A549. Description: Cell viability, resazurin assay, A549. To be noted: for IC50: Homo sapiens, A549, 24 h, read-out: A549 IC50.
Procedure: as §3
In data set [6] the test system is multiple myeloma RPMI8226. Description: Cell viability, resazurin assay, RPMI8226. As to conditions: for IC50: Homo sapiens; for S.I. (EAhy926/RPMI8226), selectivity index: 24 h IC50 ratio.
Procedure: as §3
The subject of data set [7] is breast cancer MDA-MB-231. Nature of the data set: Cell viability, resazurin assay, MDA-MB-231. As to conditions: for IC50: Homo sapiens, MDA-MB-231, 24 h, read-out: MDA-MB-231 IC50.
Procedure: as §3
In data set [8] the target is purified human recombinant PDI (rPDI) (Homo sapiens, UniProt P07237). Description: Recombinant PDI reductase activity (Di-E-GSSG assay). As to conditions: read-out: rPDI IC50; human recombinant PDI, Di-E-GSSG, 5 μM DTT.
purified human recombinant PDI (rPDI), sequence (P07237 18-508): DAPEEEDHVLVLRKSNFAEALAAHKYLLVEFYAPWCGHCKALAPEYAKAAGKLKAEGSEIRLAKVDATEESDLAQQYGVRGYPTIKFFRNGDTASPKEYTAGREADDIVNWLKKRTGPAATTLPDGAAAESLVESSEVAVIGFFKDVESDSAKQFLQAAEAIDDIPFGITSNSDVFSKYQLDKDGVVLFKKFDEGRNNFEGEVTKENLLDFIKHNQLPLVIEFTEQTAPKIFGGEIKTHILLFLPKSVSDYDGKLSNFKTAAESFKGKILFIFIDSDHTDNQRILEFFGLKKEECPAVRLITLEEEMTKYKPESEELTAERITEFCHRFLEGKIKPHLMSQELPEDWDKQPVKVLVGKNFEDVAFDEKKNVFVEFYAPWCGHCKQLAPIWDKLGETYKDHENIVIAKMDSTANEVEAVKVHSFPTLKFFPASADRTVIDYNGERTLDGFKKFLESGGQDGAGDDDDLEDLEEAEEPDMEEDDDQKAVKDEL
Procedure: (§4) In this assay, a nonfluorescent substrate, dieosin glutathione disulfide (Di-E-GSSG), was reduced into a fluorescent product eosin-glutathione (E-GSH) by platelet surface PDI in the presence of 5 μM dithiothreitol (DTT).
Data set [9] has as its target platelet surface PDI (Homo sapiens, UniProt P07237). Nature of the data set: Cell surface PDI reductase activity on intact human platelets (Di-E-GSSG assay). To be noted: read-out: Surface PDI IC50; intact human platelets, Di-E-GSSG, 5 μM DTT.
Procedure: as §4
The test system of data set [10] is human vascular endothelial EA.hy926 cells. Nature of the data set: Cell viability, resazurin assay, EA.hy926. As to conditions: EA.hy 926, 24 h, read-out: EAhy926 IC50.
Procedure: as §3
Setting [11] is: RPMI-8226, 24 h, read-out: RPMI8226 IC50.
The mark [12] stands for this setting: concentrations up to 40 μM, unpublished data.

platelet surface PDI, sequence (P07237 18-508): as above

On to `O=C1C=C(SC[C@H]2OC(O)[C@H](O)[C@@H](O)[C@@H]2O)C(=O)c2c(O)cccc21` (mixture of isomers) [Compound 19, 2-(6-Deoxy-6-thio-D-glucose)-8-hydroxynaphthalene-1,4-dione], for which the IC50 – broadly, the point on the concentration scale where inhibition reaches its midpoint – in data set [1] was above 50 µM; in data set [2], above 50 µM; in data set [4], above 20 µM; in data set [5], above 100 µM; in data set [6] (setting [11]) it was above 20 µM; in data set [7], above 100 µM. In addition, the figures for the IC50 in data set [8] and in data set [9] were 3.7 ± 1.22 µM and 1.17 ± 0.38 µM, respectively. Moreover, in [3], the “Permeability (%)” value is recorded as -0.96%.
`COc1ccc(N2C(=O)/C(=C\c3ccc([N+](=O)[O-])s3)SC2=S)cc1` [CCF642, reference compound]: the 50% inhibitory concentration (IC50) is above 20 µM in [4]; 13 ± 0.29 µM in data set [5]; 8.77 ± 0.29 µM in data set [6] (setting [11]); 5.57 ± 0.25 µM in [10]; 6.42 ± 0.29 µM in data set [7]. Besides, in data set [6], the “S.I. (EAhy926/RPMI8226), selectivity index” value came to 0.64.
As for `COc1ccc(SC2=CC(=O)c3cccc(O)c3C2=O)cc1` [Compound 8, 2-((4-Methoxyphenyl)thio)-8-hydroxynaphthalene-1,4-dione], the IC50 in [1] is 1.52 ± 0.08 µM; in [2], 0.29 ± 0.06 µM; in [4], 16.8 ± 0.62 µM; in data set [5] it was 14.9 ± 0.43 µM; in data set [6] (setting [11]), 4.7 ± 0.08 µM; in data set [10] it was 13.9 ± 1.17 µM. Besides, the IC50 in data set [7] came out at 6.63 ± 0.93 µM; in data set [8], 1.44 ± 0.08 µM; in [9], 1.37 ± 0.23 µM. Besides, the “Permeability (%)” value in [3] was determined as 80.43%. In [6], the “S.I. (EAhy926/RPMI8226), selectivity index” value amounted to 3.0.
Take `COc1ccccc1SC1=CC(=O)c2cccc(O)c2C1=O` [Compound 10, 2-((2-Methoxyphenyl)thio)-8-hydroxynaphthalene-1,4-dione]: the half-maximal inhibitory concentration (IC50) in data set [1] is 2.66 ± 0.42 µM; in data set [2], 0.71 ± 0.03 µM; in data set [4], above 20 µM; in data set [5], 17.3 ± 0.9 µM; in data set [6] (setting [11]), above 20 µM; in data set [7], above 100 µM. Besides, the figures for the half-maximal inhibitory concentration (IC50) in [8] and in data set [9] were 1.34 ± 0.12 µM and 0.79 ± 0.26 µM, respectively. In addition, in [3], the “Permeability (%)” value is 28.4%.
As for `O=C1C=C(Sc2ccc(O)cc2)C(=O)c2c(O)cccc21` [Compound 14, 2-((4-Hydroxyphenyl)thio)-8-hydroxynaphthalene-1,4-dione], the 50% inhibitory concentration (IC50) in [1] amounted to 1.3 ± 0.35 µM; in data set [2], 0.75 ± 0.14 µM; in data set [4] it was 6.4 ± 0.12 µM; in [5] it was 16.1 ± 0.27 µM; in data set [6] (setting [11]), 0.58 ± 0.03 µM; in [10], 5.69 ± 0.16 µM. Moreover, the 50% inhibitory concentration (IC50) in data set [7] amounted to 6.92 ± 1.1 µM; in data set [8], 1.5 ± 0.25 µM; in data set [9], 0.77 ± 0.2 µM. Further, in [6], the “S.I. (EAhy926/RPMI8226), selectivity index” value is listed as 9.8.
With `CCCCCSC1=CC(=O)c2cccc(O)c2C1=O` [Compound 16, 2-(Pentylthio)-8-hydroxynaphthalene-1,4-dione], the half-inhibitory concentration (IC50) in data set [1] is 7.13 ± 1.82 µM; in data set [2], 2.57 ± 0.5 µM; in [4] it was above 20 µM; in data set [5], above 50 µM; in data set [6] (setting [11]), 1.88 ± 0.08 µM; in data set [10] it was above 20 µM. In addition, the IC50 in [7] turned out to be 10.7 ± 1.26 µM; in data set [9], 0.88 ± 0.12 µM. Also, the “Permeability (%)” value in data set [3] is 91.9%. Further, the “S.I. (EAhy926/RPMI8226), selectivity index” value in data set [6] is recorded as above 10.6.
For the compound `CN(C)C1=CC(=O)c2cccc(O)c2C1=O` [Compound 23, 2-(Dimethylamino)-8-hydroxynaphthalene-1,4-dione], the IC50 in data set [1] is above 20 µM; in data set [2], above 20 µM; in [4], above 20 µM; in data set [5], above 100 µM; in data set [6] (setting [11]), above 20 µM; in data set [7] it was above 100 µM. Further, the IC50 in [9] was above 20 µM. In addition, in [3], the “Permeability (%)” value was 16.7%.
Turning to `CN(C)C1=CC(=O)c2c(O)cccc2C1=O` [Compound 24, 3-(Dimethylamino)-8-hydroxynaphthalene-1,4-dione], the IC50 in data set [1] is above 20 µM; in [2], 16 ± 2.11 µM; in data set [4], above 20 µM; in [5], above 100 µM; in data set [6] (setting [11]), above 20 µM; in data set [7] it was above 100 µM. Further, the IC50 in [9] is above 20 µM. The “Permeability (%)” value in [3] is 30.2%.
With `O=C1C=C(O)C(=O)c2c(O)cccc21` [Compound 25, 2,8-Dihydroxynaphthalene-1,4-dione], the half-inhibitory concentration (IC50) in data set [1] is above 20 µM; in data set [2], above 20 µM; in [4], above 20 µM; in data set [5], above 100 µM; in [6] (setting [11]), above 20 µM; in [7], above 100 µM. The half-maximal inhibitory concentration (IC50) in [9] is above 20 µM. Also, in data set [3], the “Permeability (%)” value is given as 5.21%.
For the compound `O=C1C(O)=CC(=O)c2c(O)cccc21` [Compound 26, 3,8-Dihydroxynaphthalene-1,4-dione], the IC50 in data set [1] is above 20 µM; in data set [2], above 20 µM; in [4], above 20 µM; in data set [5] it was above 100 µM; in data set [6] (setting [11]), above 20 µM; in data set [7], above 100 µM. Moreover, the IC50 in data set [9] was above 20 µM. The “Permeability (%)” value in [3] is 5.17%.
Take `COc1ccc(SC2=C(O)C(=O)c3c(O)cccc3C2=O)cc1` [Compound 27, 2,8-Dihydroxy-3-((4-methoxyphenyl)thio)naphthalene-1,4-dione]: the IC50 is 13.7 ± 0.89 µM in [1]; above 20 µM in data set [2]; above 20 µM in data set [4]; above 20 µM in data set [5]; above 20 µM in data set [6] (setting [11]); above 20 µM in [10]. Also, the half-inhibitory concentration (IC50) in data set [7] was above 100 µM; in [9] it was above 20 µM. Besides, in data set [3], the “Permeability (%)” value is 1.08%.
Turning to `COc1ccc(SC2=C(O)C(=O)c3cccc(O)c3C2=O)cc1` [Compound 28, 3,8-Dihydroxy-2-((4-methoxyphenyl)thio)naphthalene-1,4-dione], the 50% inhibitory concentration (IC50) was above 20 µM in data set [1]; above 20 µM in data set [2]; above 20 µM in [4]; above 100 µM in data set [5]; above 20 µM in data set [6] (setting [11]); above 100 µM in [7]. The half-maximal inhibitory concentration (IC50) in data set [9] was above 20 µM. In [3], the “Permeability (%)” value is 9.28%.
For the compound `CNC(=C[N+](=O)[O-])NCCSCc1ccc(CN(C)C)o1` [Ranitidine, reference compound], in [3], the “Permeability (%)” value was 0%.
In the case of `CC(C)C[C@H](NC(=O)[C@H](Cc1ccccc1)NC(=O)c1cnccn1)B(O)O` [bortezomib, reference compound], the IC50 in data set [4] amounted to 7.86 ± 1.23 µM; in [5], 0.69 ± 0.2 µM; in data set [6] (setting [11]) it was 5.24 ± 0.79 µM; in [6] (RPMI-8226, 72 h, read-out: RPMI8226 IC50, 72 h) it was 0.08 µM; in [10] it was 0.09 ± 0.01 µM; in data set [7], 0.46 ± 0.01 µM. The “S.I. (EAhy926/RPMI8226), selectivity index” value in [6] is recorded as 0.017.
For `CC(C)(C)CN(C(=O)CCl)C1CCS(=O)(=O)C1` (stereo not drawn) [sulfopin, reference compound], the “effect on U46619-induced platelet aggregation” value in data set [1] (setting [12]) is “does not show any effect”. In data set [2] (setting [12]), the “effect on collagen-induced platelet aggregation” value is recorded as “does not show any effect”. The “effect on cell viability of A549” value in data set [5] (unpublished data) is listed as “no significant impacts”. Moreover, the “effect on cell viability of RPMI8226” value in data set [6] (unpublished data) is “no significant impacts”. In [7] (unpublished data), the “effect on cell viability of MDA-MB-231” value is given as “no significant impacts”.
